Among the data in ChEMBL document CHEMBL1287770, “A protected l-bromophosphonomethylphenylalanine amino acid derivative (BrPmp) for synthesis of irreversible protein tyrosine phosphatase inhibitors” (Bioorg Med Chem, 2010) are Ki, inhibition and Km values, retold here.

The source made the active and inactive calls. No cut-off for these calls is given here.

The target of data set [1] is T1, Receptor-type tyrosine-protein phosphatase C (Homo sapiens, UniProt P08575).
T1 sequence (P08575 whole entry): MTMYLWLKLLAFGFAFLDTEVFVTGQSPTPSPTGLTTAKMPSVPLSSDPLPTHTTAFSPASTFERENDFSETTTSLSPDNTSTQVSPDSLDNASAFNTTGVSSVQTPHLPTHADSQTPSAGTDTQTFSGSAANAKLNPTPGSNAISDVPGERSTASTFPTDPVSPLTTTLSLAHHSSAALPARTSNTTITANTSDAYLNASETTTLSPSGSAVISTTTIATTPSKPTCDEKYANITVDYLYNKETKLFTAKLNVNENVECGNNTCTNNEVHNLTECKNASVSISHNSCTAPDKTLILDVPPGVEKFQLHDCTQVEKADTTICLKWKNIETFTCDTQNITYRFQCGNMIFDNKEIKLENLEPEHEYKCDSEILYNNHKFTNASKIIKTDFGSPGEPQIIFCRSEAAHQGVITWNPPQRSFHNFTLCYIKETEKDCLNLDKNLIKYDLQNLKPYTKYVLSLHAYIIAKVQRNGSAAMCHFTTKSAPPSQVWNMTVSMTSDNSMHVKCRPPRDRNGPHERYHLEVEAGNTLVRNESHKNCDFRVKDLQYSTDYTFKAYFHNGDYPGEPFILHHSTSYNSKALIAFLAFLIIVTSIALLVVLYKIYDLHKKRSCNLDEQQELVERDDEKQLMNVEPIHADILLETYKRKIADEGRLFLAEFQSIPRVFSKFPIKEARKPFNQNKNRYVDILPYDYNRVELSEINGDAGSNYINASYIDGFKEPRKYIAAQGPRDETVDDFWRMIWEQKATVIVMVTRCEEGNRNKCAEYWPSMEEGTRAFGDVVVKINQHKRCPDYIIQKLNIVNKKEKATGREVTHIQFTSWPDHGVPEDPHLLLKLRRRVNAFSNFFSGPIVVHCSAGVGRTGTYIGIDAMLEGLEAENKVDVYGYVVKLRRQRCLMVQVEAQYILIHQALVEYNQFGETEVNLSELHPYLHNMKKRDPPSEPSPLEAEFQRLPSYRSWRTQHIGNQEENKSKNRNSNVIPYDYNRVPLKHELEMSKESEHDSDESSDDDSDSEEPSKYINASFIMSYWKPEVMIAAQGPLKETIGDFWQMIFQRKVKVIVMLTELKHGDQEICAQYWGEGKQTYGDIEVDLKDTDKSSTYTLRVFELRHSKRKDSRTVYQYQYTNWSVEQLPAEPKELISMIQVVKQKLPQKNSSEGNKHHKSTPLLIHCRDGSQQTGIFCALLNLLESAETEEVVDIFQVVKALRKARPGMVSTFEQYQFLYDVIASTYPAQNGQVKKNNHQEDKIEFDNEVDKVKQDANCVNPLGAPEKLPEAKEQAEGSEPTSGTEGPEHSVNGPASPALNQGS
Description: Inhibition of human CD45-cytoplasmic domain at 1500 uM after 10 mins by Kitz-Wilson analysis.

Data set [2] deals with T1, Receptor-type tyrosine-protein phosphatase C. Description: Inhibition of human CD45-cytoplasmic domain at 150 uM after 10 mins by Kitz-Wilson analysis.
For data set [3], the target named is T2, Receptor-type tyrosine-protein phosphatase C (Homo sapiens) (UniProt P08575).
T2 sequence (whole entry): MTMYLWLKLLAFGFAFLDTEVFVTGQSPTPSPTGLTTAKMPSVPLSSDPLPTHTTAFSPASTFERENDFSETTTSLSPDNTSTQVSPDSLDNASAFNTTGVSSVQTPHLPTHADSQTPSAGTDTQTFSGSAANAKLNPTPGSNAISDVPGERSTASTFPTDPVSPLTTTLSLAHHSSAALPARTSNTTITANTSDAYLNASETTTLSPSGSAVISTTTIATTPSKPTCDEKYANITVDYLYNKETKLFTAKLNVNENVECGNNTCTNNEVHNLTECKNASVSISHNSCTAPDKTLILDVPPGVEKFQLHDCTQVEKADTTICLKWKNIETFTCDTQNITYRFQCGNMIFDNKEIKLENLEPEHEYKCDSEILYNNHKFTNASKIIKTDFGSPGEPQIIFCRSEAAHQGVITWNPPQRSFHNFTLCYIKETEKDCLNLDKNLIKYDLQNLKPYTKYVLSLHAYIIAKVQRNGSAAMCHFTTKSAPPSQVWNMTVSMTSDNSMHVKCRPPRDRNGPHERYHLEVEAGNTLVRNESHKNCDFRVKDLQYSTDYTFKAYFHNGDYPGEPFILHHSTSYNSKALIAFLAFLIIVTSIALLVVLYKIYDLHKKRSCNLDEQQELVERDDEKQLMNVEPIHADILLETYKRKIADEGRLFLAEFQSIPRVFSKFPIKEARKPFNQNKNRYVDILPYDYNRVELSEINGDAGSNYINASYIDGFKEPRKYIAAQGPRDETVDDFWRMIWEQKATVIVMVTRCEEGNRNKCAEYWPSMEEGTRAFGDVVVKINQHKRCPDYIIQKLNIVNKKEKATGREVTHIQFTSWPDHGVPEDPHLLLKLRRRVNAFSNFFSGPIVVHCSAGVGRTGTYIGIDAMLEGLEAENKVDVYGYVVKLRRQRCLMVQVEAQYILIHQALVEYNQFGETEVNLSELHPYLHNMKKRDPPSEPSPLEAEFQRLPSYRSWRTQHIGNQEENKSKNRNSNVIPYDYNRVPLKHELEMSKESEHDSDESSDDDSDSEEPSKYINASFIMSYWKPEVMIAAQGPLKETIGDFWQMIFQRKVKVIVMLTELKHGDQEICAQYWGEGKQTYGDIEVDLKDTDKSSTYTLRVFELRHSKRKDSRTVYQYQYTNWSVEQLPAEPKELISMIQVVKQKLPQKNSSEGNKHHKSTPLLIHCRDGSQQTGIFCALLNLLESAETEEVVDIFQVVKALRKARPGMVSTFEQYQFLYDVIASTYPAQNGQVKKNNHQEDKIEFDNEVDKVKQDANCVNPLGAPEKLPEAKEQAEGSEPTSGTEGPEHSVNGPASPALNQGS
Description: Competitive inhibition of human CD45-cytoplasmic domain after 10 mins.

The target of data set [4] is T2, Receptor-type tyrosine-protein phosphatase C (Homo sapiens). The data set is described as follows: Competitive inhibition of human CD45-cytoplasmic domain. The settings on record: TDE = time-dependent effect.
Compound in data set [5]: N[C@@H](Cc1ccc(C(Br)P(=O)(O)O)cc1)C(=O)O
Description: Inhibition of human CD45-cytoplasmic domain at 150 uM after 10 mins by Michaelis-Menten equation analysis.

Compound in data set [6]: CC(C)C[C@H](NC(=O)[C@H](Cc1ccc(C(Br)P(=O)(O)O)cc1)NC(=O)[C@@H](N)CC(=O)O)C(=O)O
The data set is described as follows: Inhibition of human CD45-cytoplasmic domain at 35 uM after 10 mins by Michaelis-Menten equation analysis.

By Ki is commonly meant a dissociation constant, usually derived from enzyme kinetics or from competition with a known ligand. Low values mean higher affinity, high ones lower affinity. As for `O=P(O)(O)C(Br)c1ccccc1` (configuration not stated) [[BROMO(PHENYL)METHYL]PHOSPHONIC ACID], the Ki entry in data set [1] was “Not Active”.
The molecule `N[C@@H](Cc1ccc(C(Br)P(=O)(O)O)cc1)C(=O)O` (some centres not stated) showed a Ki in data set [2] of 40 µM. Further, the inhibition entry in data set [3] was “inactive”. Also, the inhibition entry in data set [4] was “tde”.
Regarding `CC(C)C[C@H](NC(=O)[C@H](Cc1ccc(C(Br)P(=O)(O)O)cc1)NC(=O)[C@@H](N)CC(=O)O)C(=O)O` (some centres not stated), in data set [3], the inhibition result was “inactive”.

B1: Receptor-type tyrosine-protein phosphatase C (Homo sapiens), P08575 (protein)
chain: MTMYLWLKLLAFGFAFLDTEVFVTGQSPTPSPTGLTTAKMPSVPLSSDPLPTHTTAFSPASTFERENDFSETTTSLSPDNTSTQVSPDSLDNASAFNTTGVSSVQTPHLPTHADSQTPSAGTDTQTFSGSAANAKLNPTPGSNAISDVPGERSTASTFPTDPVSPLTTTLSLAHHSSAALPARTSNTTITANTSDAYLNASETTTLSPSGSAVISTTTIATTPSKPTCDEKYANITVDYLYNKETKLFTAKLNVNENVECGNNTCTNNEVHNLTECKNASVSISHNSCTAPDKTLILDVPPGVEKFQLHDCTQVEKADTTICLKWKNIETFTCDTQNITYRFQCGNMIFDNKEIKLENLEPEHEYKCDSEILYNNHKFTNASKIIKTDFGSPGEPQIIFCRSEAAHQGVITWNPPQRSFHNFTLCYIKETEKDCLNLDKNLIKYDLQNLKPYTKYVLSLHAYIIAKVQRNGSAAMCHFTTKSAPPSQVWNMTVSMTSDNSMHVKCRPPRDRNGPHERYHLEVEAGNTLVRNESHKNCDFRVKDLQYSTDYTFKAYFHNGDYPGEPFILHHSTSYNSKALIAFLAFLIIVTSIALLVVLYKIYDLHKKRSCNLDEQQELVERDDEKQLMNVEPIHADILLETYKRKIADEGRLFLAEFQSIPRVFSKFPIKEARKPFNQNKNRYVDILPYDYNRVELSEINGDAGSNYINASYIDGFKEPRKYIAAQGPRDETVDDFWRMIWEQKATVIVMVTRCEEGNRNKCAEYWPSMEEGTRAFGDVVVKINQHKRCPDYIIQKLNIVNKKEKATGREVTHIQFTSWPDHGVPEDPHLLLKLRRRVNAFSNFFSGPIVVHCSAGVGRTGTYIGIDAMLEGLEAENKVDVYGYVVKLRRQRCLMVQVEAQYILIHQALVEYNQFGETEVNLSELHPYLHNMKKRDPPSEPSPLEAEFQRLPSYRSWRTQHIGNQEENKSKNRNSNVIPYDYNRVPLKHELEMSKESEHDSDESSDDDSDSEEPSKYINASFIMSYWKPEVMIAAQGPLKETIGDFWQMIFQRKVKVIVMLTELKHGDQEICAQYWGEGKQTYGDIEVDLKDTDKSSTYTLRVFELRHSKRKDSRTVYQYQYTNWSVEQLPAEPKELISMIQVVKQKLPQKNSSEGNKHHKSTPLLIHCRDGSQQTGIFCALLNLLESAETEEVVDIFQVVKALRKARPGMVSTFEQYQFLYDVIASTYPAQNGQVKKNNHQEDKIEFDNEVDKVKQDANCVNPLGAPEKLPEAKEQAEGSEPTSGTEGPEHSVNGPASPALNQGS
A word on the Km: it is the concentration of substrate that gives half-maximal velocity. For the molecule B1, the Km in data set [5] and in data set [6] was 141 µM in each case.
